Data from patent US20250066389A1, “HETEROCYCLIC AMIDES AND METHODS OF USING THE SAME” (Rgenta Therapeutics, Inc., priority 2021, published 2025).
Where a name gives a salt, the structure may show the parent alone.

These compounds were tested on PMS1 (assay: Mini-Gene Reporter Assay—PMS1 (firefly luciferase mini-gene reporter transiently transfected into HEK293 cells)). Conditions: Homo sapiens; at 5 uM; mini-gene firefly luciferase reporter in HEK293 cells; read-out: PMS1 % Effect at 5 uM.
Type: cell-based
How it was run: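 HEK293 cells transiently transfected with a mini-gene construct (skipped exon with flanking introns/exons fused to firefly luciferase, pcDNA3.1) are incubated with compounds in duplicate. Exon inclusion raises luminescence; EC50 fitted by Levenberg-Marquardt; effect also scored at 5 μM.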

Row | Compound | activation at 5 µM
1 | CCOc1cc2nn(C)cc2cc1C(=O)Nc1ccc(C2=CC(C)NCC2)nn1 (stereo not drawn) [Compound 752, 6-ethoxy-2-methyl-N-(6-(6-methyl-1,2,3,6-tetrahydropyridin-4-yl)pyridazin-3-yl)-2H-indazole-5-carboxamide] | > 75%
2 | CCOc1cn2nc(C)cc2cc1C(=O)Nc1ccc(N2CCNCC2)nn1 [Compound 753, 6-ethoxy-2-methyl-N-(6-(piperazin-1-yl)pyridazin-3-yl)pyrazolo[1,5-a]pyridine-5-carboxamide hydrochloride] | > 75%
3 | CCOc1cn2nc(C)cc2cc1C(=O)Nc1ccc(C2=CCNCC2)nn1 [Compound 754, 6-ethoxy-2-methyl-N-(6-(1,2,3,6-tetrahydropyridin-4-yl)pyridazin-3-yl)pyrazolo[1,5-a]pyridine-5-carboxamide hydrochloride] | > 75%
4 | CCOc1cn2nc(C)cc2cc1C(=O)Nc1ccc(N2CCNC(C)(C)C2)nn1 [Compound 755, N-(6-(3,3-dimethylpiperazin-1-yl)pyridazin-3-yl)-6-ethoxy-2-methylpyrazolo[1,5-a]pyridine-5-carboxamide hydrochloride] | > 75%
5 | CCOc1cc2nn(C)cc2cc1C(=O)Nc1ccc(C2=CC(C)(C)NCC2)nn1 [Compound 756, N-(6-(6,6-dimethyl-1,2,3,6-tetrahydropyridin-4-yl)pyridazin-3-yl)-6-ethoxy-2-methyl-2H-indazole-5-carboxamide formate] | > 75%
6 | CCOc1cn2nc(C)cc2cc1C(=O)Nc1ccc(C2CCNCC2)nn1 [Compound 757, 6-ethoxy-2-methyl-N-(6-(piperidin-4-yl)pyridazin-3-yl)pyrazolo[1,5-a]pyridine-5-carboxamide hydrochloride] | > 75%
7 | CCOc1cc2nc(C)cn2cc1C(=O)Nc1ccc(N2CC(C)NC(CC)C2)nn1 (stereo not drawn) [Compound 758, 7-ethoxy-N-(6-(3-ethyl-5-methylpiperazin-1-yl)pyridazin-3-yl)-2-methylimidazo[1,2-a]pyridine-6-carboxamide] | > 75%
8 | CCOc1cc2nc(C)cn2cc1C(=O)Nc1ccc(C2=CCN(C)CC2)nn1 [Compound 759, 7-ethoxy-2-methyl-N-(6-(1-methyl-1,2,3,6-tetrahydropyridin-4-yl)pyridazin-3-yl)imidazo[1,2-a]pyridine-6-carboxamide] | > 75%
9 | CCOc1cn2nc(C)cc2cc1C(=O)Nc1ccc(N2C[C@@H](C)N[C@@H](C)C2)nn1 [Compound 761, N-(6-((3R,5S)-3,5-dimethylpiperazin-1-yl)pyridazin-3-yl)-6-ethoxy-2-methylpyrazolo[1,5-a]pyridine-5-carboxamide hydrochloride] | > 75%
